How the values were obtained:
Conditions in all cases: 72 h; CellTox Green cytotoxicity
DLD1 NRF2-WT [1] = assay: drug sensitivity score (DSS) cytotoxicity (DSS score); higher = more toxic; extreme values may be limits of the assay
Method in brief: (§1)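 TC50 and drug sensitivity score, a normalised area under the curve, were derived by logistic dose-response fits of cytotoxicity. The cells were an isogenic DLD1 colorectal cancer pair, NRF2 wild-type or CRISPR-edited, kept in DMEM with 10% FBS. Compounds were tested in 384-well plates at 5 concentrations across a 10,000-fold range for 72 h. Readings with CellTox Green on a Pherastar FS reader were normalised to vehicle wells and 100-μM positive-control wells.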

DLD1 NRF2-GOF [2] = assay: as above
Method in brief: as §1

DLD1 NRF2-WT [3] = assay: TC50 cytotoxicity; higher = less toxic
Method in brief: as §1

DLD1 NRF2-GOF [4] = assay: TC50 cytotoxicity; higher = less toxic
Method in brief: as §1

| SMILES | drug sensitivity score (DLD1 NRF2-WT [1]) | drug sensitivity score (DLD1 NRF2-GOF [2]) | TC50 cytotoxicity (DLD1 NRF2-WT [3]) [µM] | TC50 cytotoxicity (DLD1 NRF2-GOF [4]) [µM] |
| --- | --- | --- | --- | --- |
| CNS(=O)(=O)Nc1nccc(Cc2c(C)c3ccc(Oc4ncccn4)cc3oc2=O)c1F | 0 | 0 | > 1 | > 1 |
| COc1ccc(Cn2ccc3ccc(C(=O)NO)cc32)cc1 | 0 | 0 | > 10 | > 10 |
| Cc1c(-c2ccc(N3CCc4cccc(C(=O)Nc5nc6ccccc6s5)c4C3)nc2C(=O)O)cnn1CC12CC3CC(CC(C3)C1)C2 | – | 0 | – | > 1 |
| Cn1cc(-c2ccc(F)c(C(F)(F)F)c2)nc1C1CCN(c2ncnc3[nH]ncc23)CC1 | 0 | 0 | > 10 | > 10 |
| CC(C)[C@@H](CS(=O)(=O)C(C)C)N1C(=O)[C@@](C)(CC(=O)O)C[C@H](c2cccc(Cl)c2)[C@H]1c1ccc(Cl)cc1 [AMG-232] | 0 | 0 | > 10 | > 10 |
| CN(C)CCCOc1ccc(-c2ccc3ncc4c(c3c2)n(C2CCOCC2)c(=O)n4C)cn1 [AZD0156] | 0 | 0 | > 1 | > 1 |
| Cc1cc(Nc2nc(N[C@@H](C)c3ncc(F)cn3)ncc2Cl)[nH]n1 [AZD1480] | 0 | 0 | > 1 | > 1 |
| COc1cc2ncnc(Nc3cccc(Cl)c3F)c2cc1OC(=O)N1CCN(C)C[C@H]1C [AZD3759] | 0 | 0 | > 1 | > 1 |
| N#Cc1ccc2[nH]c(O)c(-c3ccc(CN4CCOCC4)cn3)c2c1 [AZD-1080] | 0 | 0 | > 10 | > 10 |
| C[C@]12CC[C@H](O)CC1=CC[C@@H]1[C@@H]2CC[C@]2(C)C(c3cccnc3)=CC[C@@H]12 [Abiraterone] | 0 | 0 | > 5 | > 5 |
| CCN(CC)CCNC(=O)c1c(C)[nH]c(/C=C2\C(=O)Nc3ccc(-c4csc(-c5ccccc5)n4)cc32)c1C [Amcasertib] | 0 | 0 | > 10 | > 10 |
| CCC1(c2ccc(N)cc2)CCC(=O)NC1=O (stereo unspecified) [Aminoglutethimide] | 0 | 0 | > 10 | > 10 |
| N#CC1(c2ccc(NC(=O)c3cccnc3NCc3ccncc3)cc2)CCCC1 [Apatinib] | 0 | 0 | > 10 | > 10 |
| Nc1nc(Nc2ccc3c(c2)CC[C@@H](N2CCCC2)CC3)nn1-c1cc2c(nn1)-c1ccccc1CCC2 [BGB324] | 0 | 0 | > 10 | > 10 |
| O=C(Nc1cccc(Nc2ncc(Br)c(NCCc3cnc[nH]3)n2)c1)N1CCCC1 [BX-912] | 2.2 | 2.5 | > 10 | > 10 |
| Cc1ccc(NC(=O)c2ccc(CN3CC[C@H](N(C)C)C3)c(C(F)(F)F)c2)cc1Nc1nccc(-c2cncnc2)n1 [Bafetinib] | 0 | 0 | > 1 | > 1 |
| CCS(=O)(=O)N1CC(CC#N)(n2cc(-c3ncnc4[nH]ccc34)cn2)C1 [Baricitinib] | 0 | 0 | > 2.5 | > 2.5 |
| CC(O)(CS(=O)(=O)c1ccc(F)cc1)C(=O)Nc1ccc(C#N)c(C(F)(F)F)c1 (stereo unspecified) [Bicalutamide] | 0 | 0 | > 10 | > 10 |
| Cn1cnc2c(F)c(Nc3ccc(Br)cc3F)c(C(=O)NOCCO)cc21 [Binimetinib] | 0 | 0 | > 1 | > 1 |
| Cc1sc2c(c1C)C(c1ccc(Cl)cc1)=N[C@@H](CC(=O)Nc1ccc(O)cc1)c1nnc(C)n1-2 [Birabresib] | 0 | 0 | > 10 | > 10 |

| SMILES | drug sensitivity score (DLD1 NRF2-WT [1]) | drug sensitivity score (DLD1 NRF2-GOF [2]) | TC50 cytotoxicity (DLD1 NRF2-WT [3]) [µM] | TC50 cytotoxicity (DLD1 NRF2-GOF [4]) [µM] |
| --- | --- | --- | --- | --- |
| CCN1C(=O)CNc2ncc(-c3ccc(-c4nc[nH]n4)nc3C)nc21 [CC-115] | 1.4 | 0.1 | – | > 10 |
| O=C(O)CCCCC(CCSCc1ccccc1)SCc1ccccc1 (stereo unspecified) [CPI-613] | 0 | 0 | > 10 | > 10 |
| CN(C)c1cc2c(cc1Sc1nc3c(N)nccc3n1CCNCC(C)(C)C)OCO2 [CUDC-305] | 0 | 0 | > 10 | > 10 |
| CCCCCOC(=O)Nc1nc(=O)n([C@@H]2O[C@H](C)[C@@H](O)[C@H]2O)cc1F [Capecitabine] | 0 | 0 | > 10 | > 10 |
| Cc1ccc(-c2cc(C(F)(F)F)nn2-c2ccc(S(N)(=O)=O)cc2)cc1 [Celecoxib] | 0 | 0 | > 10 | > 10 |
| CC(C)(O)CNc1nc(Nc2ccnc(C(F)(F)F)c2)nc(-c2cccc(C(F)(F)F)n2)n1 [Enasidenib] | 0 | 0 | > 10 | > 10 |
| CN1CCN(c2ccc(C(=O)Nc3n[nH]c4ccc(Cc5cc(F)cc(F)c5)cc34)c(NC3CCOCC3)c2)CC1 [Entrectinib] | 0 | 0 | > 1 | > 1 |
| C[C@]12CC[C@@H]3c4ccc(O)cc4C[C@@H](CCCCCCCCC[S+]([O-])CCCC(F)(F)C(F)(F)F)[C@H]3[C@@H]1CC[C@@H]2O (stereo partly specified) [Fulvestrant] | 0 | 0 | > 1 | > 1 |
| Cn1nccc1Nc1nccc(-c2ccn([C@H](CO)c3ccc(Cl)c(F)c3)c(=O)c2)n1 [GDC-0994] | 0 | 0 | > 10 | > 10 |
| CCCOc1ccn2c(C(C)=O)cc(-c3ccccc3S(C)(=O)=O)c2c1 [GSK2801] | 0 | 0 | > 10 | > 10 |
| CCN(CC)Cc1ccc2cc(COC(=O)Nc3ccc(C(=O)NO)cc3)ccc2c1 [Givinostat] | 1.6 | 0 | 0.344 | > 1 |
| CN1CC[C@@H](NC(=O)Nc2ccc(C#N)cc2)C[C@@H]1c1nc2ccccc2[nH]1 [Glasdegib] | 0 | 0 | > 1 | > 1 |
| COCCNCc1ccc(-c2cc3nccc(Oc4ccc(NC(=S)NC(=O)Cc5ccc(F)cc5)cc4F)c3s2)nc1 [Glesatinib] | 0 | 0 | > 2.5 | > 2.5 |
| COc1cc(C(=O)O)ccc1NC(=O)[C@@H]1N[C@@H](CC(C)(C)C)[C@](C#N)(c2ccc(Cl)cc2F)[C@H]1c1cccc(Cl)c1F [Idasanutlin] | 0 | 0 | > 10 | > 10 |
| NC(=O)/C(=C/n1cnc(-c2cc(C(F)(F)F)cc(C(F)(F)F)c2)n1)c1cncnc1 [KPT-8602] | 0 | 0 | > 10 | > 10 |
| Nc1cccc2c1CN(C1CCC(=O)NC1=O)C2=O (stereo unspecified) [Lenalidomide] | 0 | 0 | > 100 | > 100 |
| CCNCCS(=O)(=O)NC[C@@]1(c2ccccc2)SC(NC(=O)C(C)(C)C)=NN1C(=O)C(C)(C)C [Litronesib] | 0 | 1.6 | > 1 | > 1 |
| Nc1nc(OCc2cc(Br)cs2)c2[nH]cnc2n1 [Lomeguatrib] | 0 | 0 | > 10 | > 10 |
| Cc1c(F)cc(C(=O)NC2CC2)cc1-c1ccc(C(=O)NCC(C)(C)C)cn1 [Losmapimod] | 0 | 0 | > 10 | > 10 |
| O=C(c1cccc(Cl)c1F)N1CCN(Cc2cccc(Nc3nccs3)n2)CC1 [MK-8745] | 2 | 2.9 | – | 1.55 |

| SMILES | drug sensitivity score (DLD1 NRF2-WT [1]) | drug sensitivity score (DLD1 NRF2-GOF [2]) | TC50 cytotoxicity (DLD1 NRF2-WT [3]) [µM] | TC50 cytotoxicity (DLD1 NRF2-GOF [4]) [µM] |
| --- | --- | --- | --- | --- |
| Nc1nc2cc(-c3ccc4ncc(C(=O)N5CCOCC5)n4c3)ccc2o1 [MLN1117] | 0 | 0 | > 10 | > 10 |
| CNC(=O)[C@@H](NC(=O)[C@H](CC(C)C)[C@H](O)C(=O)NO)C(C)(C)C [Marimastat] | 0 | 0 | > 10 | > 10 |
| Cc1cc(-c2ncc(CC(=O)Nc3ccc(-c4cnccn4)cn3)cc2C)ccn1 [NVP-LGK974] | 0 | 0 | > 10 | > 10 |
| COc1nc(N)nc2c1ncn2[C@@H]1O[C@H](CO)[C@@H](O)[C@@H]1O [Nelarabine] | 0 | 0 | > 10 | > 10 |
| NC(=O)c1cccc2cn(-c3ccc(C4CCCNC4)cc3)nc12 (stereo unspecified) [Niraparib] | 0 | 0 | > 10 | > 10 |
| CC#CC(=O)N1CC[C@@H](n2c(=O)n(-c3ccc(Oc4ccccc4)cc3)c3c(N)ncnc32)C1 [ONO-4059] | 0 | 0 | > 1 | > 1 |
| CC1(C)CC[C@]2(NC(=O)C(C)(F)F)CC[C@]3(C)[C@H](C(=O)C=C4[C@@]5(C)C=C(C#N)C(=O)C(C)(C)[C@@H]5CC[C@]43C)[C@@H]2C1 [Omaveloxolone] | 0 | 0 | > 10 | > 10 |
| CC(C)c1cc(C(=O)N2Cc3ccc(CN4CCN(C)CC4)cc3C2)c(O)cc1O [Onalespib] | 0 | 0 | > 2.5 | > 2.5 |
| CN1CCN(c2cc(C(=O)Nc3ccc4c(c3)-c3c(c(C(N)=O)nn3-c3ccc(F)cc3)CC4)c(Cl)cn2)CC1 [PHA 408] | 0 | 0 | > 10 | > 10 |
| NS(=O)(=O)OC[C@@H]1C[C@@H](n2ccc3c(N[C@H]4CCc5ccccc54)ncnc32)C[C@@H]1O [Pevonedistat] | 0 | 0 | > 10 | > 10 |
| Cn1cc(CNCC2CCN(c3ncc(C(=O)NO)cn3)CC2)c2ccccc21 [Quisinostat] | 5.1 | 0 | 0.135 | > 1 |
| CC(C)(C)c1cc(NC(=O)Nc2ccc(-c3cn4c(n3)sc3cc(OCCN5CCOCC5)ccc34)cc2)no1 [Quizartinib] | 0 | 0 | > 1 | > 1 |
| CCOC(=O)C1=CCCC[C@H]1S(=O)(=O)Nc1ccc(F)cc1Cl [Resatorvid] | 0 | 0 | > 10 | > 10 |
| CN(C)Cc1ccc(S(=O)(=O)n2ccc(/C=C/C(=O)NO)c2)cc1 [Resminostat] | 0 | 0 | > 10 | > 10 |
| C[C@H]1CNCCCN1S(=O)(=O)c1cccc2cncc(F)c12 [Ripasudil] | 0 | 0 | > 10 | > 10 |
| O=C(CCCCCCNC(=O)c1cnc(N(c2ccccc2)c2ccccc2)nc1)NO [Rocilinostat] | 0 | 0 | > 10 | > 10 |
| CN(CC(=O)N(Cc1ccc(C2CCCCC2)cc1)c1ccc(C(=O)O)cc1)S(=O)(=O)c1c(F)c(F)c(F)c(F)c1F [SH-4-54] | 0 | 0 | > 25 | > 25 |
| Cc1cc2c(C(=O)NC[C@H](C)c3ccccc3)c(O)c(O)cc2c(O)c1-c1c(C)cc2c(C(=O)NC[C@H](C)c3ccccc3)c(O)c(O)cc2c1O [Sabutoclax] | 0 | 0 | > 25 | > 25 |
| CC(C)C[C@@H](C(=O)N[C@H](C(=O)OC1CCCC1)c1ccccc1)[C@H](O)C(=O)NO [Tosedostat] | 4.9 | 4.6 | – | > 10 |

— the supplement of paper PMC7600603
